Data published in the supplement of paper PMC10307832.

Tests used:
Test in all cases: relative viability (nuclei count vs DMSO), 5 days (fraction); higher = more cells survive
17-AAG + Linsitinib = compound: C=CCNC1=C2C[C@@H](C)C[C@H](OC)[C@H](O)[C@@H](C)/C=C(\C)[C@H](OC(N)=O)[C@@H](OC)/C=C\C=C(/C)C(=O)NC(=CC1=O)C2=O [17-AAG] + C[C@]1(O)C[C@@H](c2nc(-c3ccc4ccc(-c5ccccc5)nc4c3)c3c(N)nccn32)C1 [Linsitinib] (partner 1 µM)
Summary of the method: (§1)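 Relative viability divides the nuclei count in treated wells by that in vehicle wells. Lung cancer cell lines were seeded in 1536-well plates, dosed by pin tool the next day, and fixed and stained after 5 days in one step with final 0.05% Triton X-100, 1% formaldehyde and 1 ug/ml Hoechst. Dosing was a single drug or a fixed anchor-drug dose plus five library-drug doses (not always all listed) in √10 steps, and values are medians of duplicate plates imaged at 4×.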

17-AAG + Navitoclax = compound: C=CCNC1=C2C[C@@H](C)C[C@H](OC)[C@H](O)[C@@H](C)/C=C(\C)[C@H](OC(N)=O)[C@@H](OC)/C=C\C=C(/C)C(=O)NC(=CC1=O)C2=O [17-AAG] + CC1(C)CCC(c2ccc(Cl)cc2)=C(CN2CCN(c3ccc(C(=O)NS(=O)(=O)c4ccc(N[C@H](CCN5CCOCC5)CSc5ccccc5)c(S(=O)(=O)C(F)(F)F)c4)cc3)CC2)C1 [Navitoclax] (partner 0.5 µM)
Summary of the method: as §1

17-AAG + Vorinostat = compound: C=CCNC1=C2C[C@@H](C)C[C@H](OC)[C@H](O)[C@@H](C)/C=C(\C)[C@H](OC(N)=O)[C@@H](OC)/C=C\C=C(/C)C(=O)NC(=CC1=O)C2=O [17-AAG] + O=C(CCCCCCC(=O)Nc1ccccc1)NO [Vorinostat] (partner 1 µM)
Summary of the method: as §1

17-AAG + Alpelisib = compound: C=CCNC1=C2C[C@@H](C)C[C@H](OC)[C@H](O)[C@@H](C)/C=C(\C)[C@H](OC(N)=O)[C@@H](OC)/C=C\C=C(/C)C(=O)NC(=CC1=O)C2=O [17-AAG] + Cc1nc(NC(=O)N2CCC[C@H]2C(N)=O)sc1-c1ccnc(C(C)(C)C(F)(F)F)c1 [Alpelisib] (partner 2 µM)
Summary of the method: as §1

Row | Cell Line | relative viability (17-AAG + Linsitinib; first compound 0.00128 µM) | relative viability (17-AAG + Linsitinib; first compound 0.004048 µM) | relative viability (17-AAG + Linsitinib; first compound 0.0128 µM) | relative viability (17-AAG + Linsitinib; first compound 0.04048 µM) | relative viability (17-AAG + Linsitinib; first compound 0.128 µM) | relative viability (17-AAG + Navitoclax; first compound 0.00128 µM) | relative viability (17-AAG + Navitoclax; first compound 0.004048 µM) | relative viability (17-AAG + Navitoclax; first compound 0.0128 µM) | relative viability (17-AAG + Navitoclax; first compound 0.04048 µM) | relative viability (17-AAG + Navitoclax; first compound 0.128 µM) | relative viability (17-AAG + Vorinostat; first compound 0.00128 µM) | relative viability (17-AAG + Vorinostat; first compound 0.004048 µM) | relative viability (17-AAG + Vorinostat; first compound 0.0128 µM) | relative viability (17-AAG + Vorinostat; first compound 0.04048 µM) | relative viability (17-AAG + Vorinostat; first compound 0.128 µM) | relative viability (17-AAG + Alpelisib; first compound 0.00128 µM) | relative viability (17-AAG + Alpelisib; first compound 0.004048 µM) | relative viability (17-AAG + Alpelisib; first compound 0.0128 µM) | relative viability (17-AAG + Alpelisib; first compound 0.04048 µM) | relative viability (17-AAG + Alpelisib; first compound 0.128 µM)
1 | NCI-H2347 | 0.91 | 0.84 | 0.997 | 0.656 | 0.37 | 0.908 | 0.737 | 0.74 | 0.441 | 0.245 | 0.569 | 0.557 | 0.524 | 0.329 | 0.379 | 1.12 | 0.961 | 1.1 | 0.565 | 0.417
2 | NCI-H1993 | 0.764 | 0.718 | 0.711 | 0.573 | 0.5 | 0.904 | 0.933 | 0.529 | 0.564 | 0.441 | 0.83 | 0.73 | 0.472 | 0.201 | 0.273 | 0.722 | 0.657 | 0.658 | 0.528 | 0.434
3 | NCI-H647 | 1.16 | 0.596 | 0.18 | 0.118 | 0.074 | 1.23 | 1.01 | 0.11 | 0.104 | 0.0816 | 0.584 | 0.533 | 0.132 | 0.116 | 0.0825 | 1.29 | 0.605 | 0.0949 | 0.107 | 0.0714
4 | NCI-H1793 | 0.824 | 0.712 | 0.51 | 0.236 | 0.153 | 0.346 | 0.323 | 0.228 | 0.192 | 0.151 | 0.687 | 0.656 | 0.283 | 0.189 | 0.148 | 0.846 | 0.612 | 0.356 | 0.198 | 0.167
5 | NCI-H1395 | 1.12 | 1.1 | 0.705 | 0.469 | 0.383 | 1.03 | 1.29 | 0.698 | 0.458 | 0.344 | 0.626 | 0.607 | 0.415 | 0.366 | 0.368 | 1.02 | 0.967 | 0.804 | 0.395 | 0.388
6 | HCC-827 | 0.902 | 0.958 | 0.946 | – | 0.855 | 0.973 | 1.03 | 1.01 | – | 0.944 | 0.963 | 0.864 | 0.833 | – | 0.863 | 1.03 | 1.05 | 0.997 | – | 0.899
7 | NCI-H2228 | 0.614 | 0.264 | 0.171 | 0.15 | 0.141 | 0.893 | 0.486 | 0.146 | 0.168 | 0.112 | 0.691 | 0.588 | 0.168 | 0.167 | 0.12 | 0.781 | 0.273 | 0.16 | 0.19 | 0.153
8 | EMC-BAC-2 | 0.875 | 0.772 | 0.837 | 0.803 | 0.265 | 1.23 | 1.07 | 1.18 | 1.11 | 0.443 | 0.609 | 0.506 | 0.387 | 0.199 | 0.357 | 0.836 | 0.761 | 0.754 | 0.813 | 0.381
9 | NCI-H23 | 0.554 | 0.511 | 0.486 | 0.174 | 0.157 | 0.922 | 0.836 | 0.688 | 0.167 | 0.125 | 0.635 | 0.373 | 0.344 | 0.129 | 0.116 | 0.717 | 0.472 | 0.434 | 0.2 | 0.148
10 | SK-LU-1 | 1.19 | 0.455 | 0.352 | 0.212 | 0.191 | 0.818 | 0.164 | 0.135 | 0.152 | 0.136 | 0.86 | 0.556 | 0.293 | 0.253 | 0.199 | 0.961 | 0.327 | 0.188 | 0.237 | 0.165
11 | LC-2-ad | 0.861 | 0.883 | 0.857 | 0.362 | 0.136 | 0.525 | 0.565 | 0.393 | 0.234 | 0.111 | 0.701 | 0.719 | 0.732 | 0.318 | 0.182 | 0.955 | 0.863 | 0.747 | 0.167 | 0.0846
12 | HCC-15 | 0.879 | 0.894 | 0.613 | 0.387 | 0.213 | 0.767 | 0.57 | 0.434 | 0.469 | 0.144 | 0.892 | 0.995 | 0.641 | 0.407 | 0.263 | 0.948 | 0.772 | 0.587 | 0.403 | 0.16
13 | NCI-H3122 | 1.02 | 0.985 | 0.254 | 0.207 | 0.138 | 1.02 | 1.02 | 0.949 | 0.194 | 0.159 | 0.934 | 0.816 | 0.219 | 0.111 | 0.0733 | 0.687 | 0.533 | 0.198 | 0.196 | 0.173
14 | LXF-289 | 0.964 | 0.954 | 0.924 | 0.52 | 0.179 | 0.995 | 0.907 | 0.891 | 0.536 | 0.184 | 0.765 | 0.759 | 0.402 | 0.214 | 0.115 | 1.07 | 1.03 | 0.882 | 0.647 | 0.118
15 | CAL-12T | 0.764 | 0.815 | 0.73 | 0.425 | 0.276 | 1.25 | 1.17 | 1.21 | 0.799 | 0.296 | 0.796 | 0.729 | 0.671 | 0.65 | 0.282 | 1.43 | 1.09 | 0.993 | 0.706 | 0.658
16 | COR-L23 | 0.919 | 0.952 | 0.943 | 0.473 | 0.138 | 1.07 | 1.06 | 0.991 | 0.544 | 0.0992 | 0.489 | 0.408 | 0.47 | 0.319 | 0.109 | 0.715 | 0.826 | 0.941 | 0.376 | 0.0924
